Source: paper PMC10127606, “Salmonella Invasion Is Controlled by Competition among Intestinal Chemical Signals” (mBio, 2023)
Positions count from the first letter of the chain named. pKd: −log10 of the molar value. Where two headings read alike, the source gives them in different places.

Columns and labels:
[1] = target: T1, HilD^K293A (Salmonella typhimurium, UniProt P0CL08, K293A); test: ELISA binding of fatty acids to mutant HilD^K293A
T1 construct: made in house; host or cells: E. coli BL21(DE3), pET15b
T1 sequence (P0CL08 1-309 K293A): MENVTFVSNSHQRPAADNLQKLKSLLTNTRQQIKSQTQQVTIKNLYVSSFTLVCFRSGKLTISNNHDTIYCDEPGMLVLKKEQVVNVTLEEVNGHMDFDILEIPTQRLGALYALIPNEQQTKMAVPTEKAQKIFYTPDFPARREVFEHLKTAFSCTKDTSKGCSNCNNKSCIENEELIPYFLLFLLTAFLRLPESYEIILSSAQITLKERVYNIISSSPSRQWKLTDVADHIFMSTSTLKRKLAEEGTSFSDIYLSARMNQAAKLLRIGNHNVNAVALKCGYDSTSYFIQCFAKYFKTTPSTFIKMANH
Procedure: (§1) Assays were performed as previously described in detail in Chowdhury et al. ([15], [16]). Briefly, 96-well polystyrene plates coated with various concentrations of fatty acids in coating buffer (0.05 M sodium carbonate-bicarbonate, pH 9.3) were incubated overnight at 4°C. The wells were washed three times with PBS, followed by the addition of 200 μL blocking buffer (1% Ficoll 400 in PBS). […] The wells were washed, incubated with a 1:1,000 dilution of anti-His tag antibody, and incubated at room temperature for an hour. After washing, the wells were incubated with a 1:5,000 dilution of anti-mouse secondary antibody for an hour. Finally, the wells were washed three times with PBS-T (PBS plus 0.1% Tween 20), and 100 μL OPD (o-phenylenediamine) substrate was added. After color development, the reaction was ended with 1 N sulfuric acid and read spectrophotometrically at 490 nm. Data were analyzed in GraphPad Prism. Nonlinear regression was plotted, and one-site total binding was performed to calculate Kd values.
(§2) hilD alleles were cloned into pET15b(+), expressed, and purified as described in detail previously ([15]). Briefly, the pET15b-6XHis-hilD or pET15b-6XHis-hilD^Q290A or pET15b-6XHis-hilD^K293A plasmid was transformed into E. coli BL21(DE3) for expression. […] The final protein concentration and quality after dialysis were assessed by Bradford estimation and SDS-PAGE.

[2] = test system: invasion gene hilA expression; test: hilA-luxCDABE transcriptional reporter luciferase assay; format: cell-based; conditions: no formic acid preincubation; 500 nM c2-HDA, 40 μM oleic acid, 10 mM propionic acid
Procedure: Salmonella strains carrying luxCDABE reporter plasmids were grown overnight in 5 mL LB broth with appropriate antibiotics. These were subcultured (1:100) in M9 minimal medium with 0.2% glucose and antibiotics for 16 h. […] These were incubated for 3 h at 37°C in an incubator without aeration. Dimethyl sulfoxide (DMSO) or different concentrations of fatty acids were added to the reaction, and replicate aliquots were introduced into the BioTek Synergy H1 microplate reader. Luminescence and OD600 were recorded every half-hour for 24 h. Data were analyzed in GraphPad Prism. For every treatment, the area under the curve (AUC) was calculated. DMSO was normalized to 100%, and other reactions were calculated accordingly.

[3] = test system: invasion gene sipC expression; test: sipC::lacZY reporter β-galactosidase assay; format: cell-based; conditions: no formic acid preincubation; 10 μM c2-HDA, 40 μM oleic acid
Procedure: The β-galactosidase assay was performed using the method of Miller, as previously described in detail ([39]). Miller units were calculated using the following equation: Miller units = (OD420 × 1,000)/(OD600 × t × v), where t is the time (minutes) the reaction was allowed to continue before adding the stop solution, v is the volume of culture (mL) assayed, and OD420 and OD600 are the densities of the cultures at 420 and 600 nm, respectively. All reactions were performed in quadruplicates. Data were analyzed in Excel and plotted in GraphPad Prism.

[4] = target: T2, HilD-hilA complex (Salmonella typhimurium, UniProt P0CL08); test: EMSA of HilD binding to hilA promoter DNA; conditions: c2-HDA 20 μM, t2-HDA 40 μM, oleic acid 50 μM; no formic acid
T2 construct: made in house; host or cells: E. coli BL21(DE3), pET15b
T2 sequence (P0CL08 1-309): T1 sequence (P0CL08 1-309 K293A) with A293K
Procedure: Assays were performed as previously described ([15], [16]). […] Various concentrations of the fatty acids (c2-HDA, 20 μM; t2-HDA, 40 μM; or oleic acid, 50 μM) or control solvents were added, and the reaction was incubated at room temperature for 1 h. Dye solution (10 mM Tris, 1 mM EDTA, 50% vol/vol glycerol, 0.001% wt/vol bromophenol blue) was added to a final concentration of 1×, and samples were separated on 7% acrylamide gels. DNA was stained using SYBR Safe and visualized in a Bio-Rad GelDoc imaging system.

[5] = target: T3, HilD (Salmonella typhimurium, UniProt P0CL08); test: biochemical; format: binding; design: made in house; host or cells: E. coli BL21(DE3), pET15b
T3 sequence (P0CL08 1-309): T1 sequence (P0CL08 1-309 K293A) with A293K
Procedure: as §1
hilD alleles were cloned into pET15b(+), expressed, and purified as described in detail previously ([15]). Briefly, the pET15b-6XHis-hilD or pET15b-6XHis-hilD^Q290A or pET15b-6XHis-hilD^K293A plasmid was transformed into E. coli BL21(DE3) for expression. Transformants were induced with 5 mM IPTG (isopropyl β-D-1-thiogalactopyranoside) for 4 h. Cultures were centrifuged, lysed, treated with TALON beads, and applied to protein purification columns. Bound protein was eluted and confirmed by SDS-PAGE. Following confirmation, eluted samples were dialyzed overnight. The final protein concentration and quality after dialysis were assessed by Bradford estimation and SDS-PAGE.

[6] = target: T4, HilD^Q290A (Salmonella typhimurium, UniProt P0CL08, Q290A); test: ELISA binding of fatty acids to mutant HilD^Q290A
T4 construct: made in house; host or cells: E. coli BL21(DE3), pET15b
T4 sequence (P0CL08 1-309 Q290A): T1 sequence (P0CL08 1-309 K293A) with Q290A, A293K
Procedure: as §1, §2

[7] = target: T3, HilD; format: cell-based; design: The stability of HilD in Salmonella carrying a chromosomal tetRA-hilD-3×FLAG tag; expressed in transfected cells; host or cells: Salmonella Typhimurium strain CA2446 (tetRA-hilD-3XFLAG attλ:pDX1::hilA'-lacZ)
Procedure: Assays were performed as previously described ([22]). Salmonella strains carrying a chromosomal tetracycline-inducible hilD with a C-terminal 3×FLAG tag and a hilA::lacZY fusion (for invasion gene expression assessment) were grown overnight in LB and then diluted 1:100 into LB buffered with 100 mM MOPS (pH 6.7) with 2.5 μg/mL tetracycline. […] After 1 h of incubation at 37°C with aeration, samples were collected to measure hilA::lacZY expression in a β-galactosidase assay. Individual cultures were then equilibrated to an OD600 of 1. New protein production was halted by adding an antibiotic combination (100 μg/mL rifampin, 200 μg/mL streptomycin, and 50 μg/mL spectinomycin). These cultures were incubated at 37°C with aeration, and 200-μL aliquots were collected every 30 min for 4 h. Samples were lysed in 5× Laemmli buffer, boiled, and immunoblotted with an anti-FLAG antibody to monitor HilD levels.

[8] = Kd, HilD preincubated with formic acid (500 μM)
[9] = Kd, HilD without formic acid preincubation
[10] = HilD preincubated with formic acid (500 μM), read-out: Kd
[11] = HilD without formic acid preincubation, read-out: Kd

With `CCCCCCCC/C=C\CCCCCCCC(=O)O` [oleic acid] the pKd [1] was 3.92, the “effect on hilA expression” value [2] was “severely repressed” and the “effect on sipC expression” value [3] was “repressed”. For the same molecule, the “effect on HilD-hilA complex” value [4] was “disrupted the HilD-hilA complex”, the pKd [5, 8] was 2.86 and the pKd [5, 9] was 3.87.

For `CCCCCCCCCCCCC/C=C\C(=O)O` [c2-HDA, cis-2-hexadecenoic acid], the “effect on hilA expression” value [2] was “drastically reduced hilA expression”, the pKd [6] was 4.90 and the “effect on sipC expression” value [3] was “repressed”. For the same molecule, the “effect on HilD-hilA complex” value [4] was “disrupted the HilD-hilA complex”, the pKd [5, 8] was 4.09 and the pKd [5, 9] was 5.28.

In the case of `CCC(=O)O` [propionic acid], the “effect on hilA expression” value [2] was “severely repressed”.

With `CCCCCCCCCCCCC/C=C/C(=O)O` [t2-HDA] the HilD half-life ([7]; fatty acid 20 μM after preincubation with formic acid (10 mM)) was ~ 127 min, the HilD half-life ([7]; fatty acid 20 μM, no formic acid preincubation (DMSO control ~227 min)) was ~ 28 min and the “effect on HilD-hilA complex” value [4] was “disrupted the HilD-hilA complex”. The pKd [5, 10] was 3.75 and the pKd [5, 11] was 4.80.

`CCCCCCCCCCCCCCCCC/C=C\C(=O)O` [c2-EA] gave a pKd [5, 10] of 3.42 and a pKd [5, 11] of 4.02.
